Like-named read-outs stand apart in the source and are kept apart here.
Tests used:
[1] = tested on: HPA axis; experiment: Stress evoked increase of corticosterone levels; type: in vivo, mice; details: acute swim stress; baseline conditions and after chronic corticosterone treatment
Experimental: Adult male C57BL/6Ntac mice were exposed to a 6 minutes swim stress. […]. Blood was collected into ice-chilled tubes containing EDTA and centrifuged at 3000 rpm for 10 min (at 4° C.) for separation of plasma, and plasma samples were stored at −80° C. until assayed. […]; Diagnostic Systems Laboratories, Inc. Webster, Tex.; sensitivity limit: 20 ng/ml). ACTH was measured directly in plasma using an ImmuChem™ Double Antibody hACTH 1251 RIA kit (No. 07-106101; MP Biomedicals, LLC, Orangeburg, N.Y.) with a sensitivity limit ˜5.7 pg/ml. All samples were measured simultaneously to reduce inter-assay variability.

[2] = tested on: DCX+ immature granule cells; experiment: DCX immunohistochemistry: number, dendritic morphology and Sholl analysis of immature granule cells; type: in vivo, mice
Experimental: Immunohistochemistry and confocal imaging. Mice were anesthetized with ketamine/xylazine (100 and 7 mg/kg, respectively) and transcardially perfused (cold saline, followed by 4% cold paraformaldehyde in PBS). […] Immunohistochemistry was performed in the following steps: 2 h incubation in 1:1 formamide/2×SSC at 65° C., 5 min rinse in 2×SSC, 30 min incubation in 2N HCl at 37° C., and 10 min rinse in 0.1M boric acid, pH 8.5, 2 h incubation in 0.1M PBS with 0.3% Triton X-100, and 5% normal donkey serum. Sections were then incubated overnight at 4° C. in primary antibodies for doublecortin (goat; 1:500; Santa Cruz Biotechnology, Santa Cruz, Calif.), bromodeoxyuridine (BrdU; rat; 1:100; Serotec, Oxford, UK), and neuronal-specific nuclear protein (NeuN) (mouse; 1:500; Chemicon, Temecula, Calif.). Biotinylated or fluorescent secondary antibodies were used. All secondary antibodies were purchased from Jackson ImmunoResearch (West Grove, Pa.). DCX staining for Sholl analysis was done as follows: sections were rinsed in PBS, treated with 1% H2O2 in 1:1 PBS and methanol for 15 min to quench endogenous peroxidase activity (and to enhance dendritic staining), incubated in 10% normal donkey serum and 0.3% Triton X-100 for 30 min, and then incubated overnight at 4° C. in primary antibody for doublecortin. After secondary antibody incubation, sections were developed using Vector ABC kit and DAB kit. Bright-field images were taken with a Zeiss (Oberkochen, Germany) Axioplan-2 upright microscope. Stereological procedure was used to quantify labeled cells (Malberg et al., 2000 ? ). All cell counting for triple-stained sections were done using a Zeiss LSM 510 META confocal microscope.
Sholl analysis. DCX-positive (DCX^+) granule cells with tertiary, relatively untruncated dendritic branches or BrdU/DCX double-positive cells (one DCX^+ cell was traced for each […] hippocampal slice; n=10-12 cells per brain for DAB-stained sections; n=4-8 cells per brain for fluorescent staining, 5 mice per group) were traced using camera lucida at 40× magnification (Neurolucida; MicroBrightField, Williston, Vt.). Adult SvEvTac129 mice (16-20 weeks old) were used to obtain sparsely labeled DCX^+ cells. DCX immunohistochemistry was done to maximize the labeling of dendrites (see above methods). Sholl analysis for dendritic complexity was performed using the accompanying software (NeuroExplorer; MicroBrightField), calculating dendritic complexity including dendritic length and number of intersections (branch points). All samples were number coded, and analysis was done blind to treatment.
Next, the DCX^+ cells were subcategorized according to their dendritic morphology: (1) DCX^+ cells with no tertiary dendritic processes (FIG. 2A), and (2) DCX^+ cells with complex, tertiary dendrites (FIG. 2B). […] The results are mean±SEM of DCX^+ cells with tertiary branches.
Double fluorescent immunohistochemistry for BrdU and DCX were performed on hippocampal sections. BrdU cells that were also DCX' were identified and then Sholl analysis on the double-positive cells was performed (FIG. 3 D-G).

[3] = tested on: dentate gyrus of the adult mouse hippocampus; experiment: BrdU labeling for proliferation and survival study, corticosterone model
Experimental: After anesthesia with ketamine (100 mg/kg), mice were perfused transcardially (cold saline for 2 min, followed by 4% cold paraformaldehyde at 4° C.). […] For DAB staining, sections were mounted on slides and boiled in citric acid (pH 6.0) for 5 min, rinsed with PBS, and treated with 0.01% trypsin in Tris/CaCl2 for 10 min. Brain sections were incubated for 30 min with 2N HCl and blocked with 5% NGS. Sections were then incubated overnight at room temperature with anti-mouse BrdU (1:100). After washing with PBS, sections were incubated for 1 hr with secondary antibody (1:200 biotinylated goat anti-mouse) followed by amplification with an avidinbiotin complex. The staining was visualized with DAB.

[4] = tested on: C57BL/6Ntac mice; experiment: Home cage activity; type: in vivo; details: chronic antidepressant treatment (fluoxetine 18 mg/kg/day)
Experimental: Home cage activity Home cage activity was quantified using the ActiV-Meter (Bioseb, France) over a 24 hours period. During the experiment, food and water were provided ad libitum. Various parameters such as activity time (sec), ambulatory distance (cm) and inactivity duration (calculated from the difference between immobility and motionless activity duration while the animal is eating or scratching) were recorded. The open field paradigm, the novelty suppressed feeding, the forced swim test The procedure for each behavioral test, i.e. the open field paradigm, the novelty suppressed feeding, the forced swim test, is described in the materials and methods section.

[5] = tested on: C57BL/6Ntac mice
Excerpt: The novelty suppressed feeding paradigm (NSF) is a conflict test that elicits competing motivations: the drive to eat and the fear of venturing into the center of brightly lit arena. […] Briefly, the testing apparatus consisted of a plastic box (50×50×20 cm), the floor of which was covered with approximately 2 cm of wooden bedding. Twenty-four hours prior to behavioral testing, all food was removed from the home cage. At the time of testing, a single pellet of food (regular chow) was placed on a white paper platform positioned in the center of the box. An animal was placed in a corner of the box, and a stopwatch was immediately started. The latency to eat (defined as the mouse sitting on its haunches and biting the pellet with the use of forepaws) was timed. Immediately afterwards, the animal was transferred to its home cage, and the amount of food consumed by the mouse in the subsequent 5 min was measured, serving as a control for change in appetite as a possible confounding factor. Each mouse was weighed before food deprivation and before testing to assess the percentage of body weight loss (data not shown).
Mice were anesthetized with ketamine and xylazine (100 mg/ml ketamine; 20 mg/ml xylazine), placed in a stereotaxic frame and exposed to cranial irradiation using a Siemens Stabilopan X-ray system operated at 300 kVp and 20 mA. […] Dosimetry was done using a Capintec Model PR06G electrometer ionization chamber and Kodak Readypack Radiographic XV films. The corrected dose rate was approximately 1.8 Gy per min at a source to skin distance of 30 cm. The procedure lasted 2 min and 47 sec, delivering a total of 5 Gy. Three 5 Gy doses were delivered on days 1, 4 and 8.

[6] = biological target: T1, 5-HT1A autoreceptors (Mus musculus, UniProt Q64264)
T1 sequence (Q64264 1-421): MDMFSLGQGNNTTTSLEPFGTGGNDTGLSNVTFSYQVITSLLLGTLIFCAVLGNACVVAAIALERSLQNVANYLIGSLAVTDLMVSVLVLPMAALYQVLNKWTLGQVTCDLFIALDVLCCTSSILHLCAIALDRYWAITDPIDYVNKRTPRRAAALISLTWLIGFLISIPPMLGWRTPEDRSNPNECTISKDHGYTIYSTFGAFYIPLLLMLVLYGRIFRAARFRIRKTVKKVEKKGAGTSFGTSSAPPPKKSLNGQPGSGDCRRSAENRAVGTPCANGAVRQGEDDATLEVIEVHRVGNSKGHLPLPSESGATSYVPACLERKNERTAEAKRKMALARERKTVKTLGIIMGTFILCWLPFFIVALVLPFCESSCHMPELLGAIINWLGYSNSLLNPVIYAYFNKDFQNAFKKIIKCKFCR
Experimental: (A) 8-OH DPAT-induced hypothermia in 1A-High and 1A-Low mice. Following establishment of baseline body temperature, animals received IP injections of 0.1 mg/kg 8-OHDAPT, 0.5 mg/kg 8-OH DPAT, or saline (N=5/dose/group). Values are expressed as core temperature change from the last recorded baseline temperature.

[7] = tested on: β-arrestin 2 knock out mice; experiment: Forced Swim Test in β-arrestin 2 knock out mice and littermates; type: in vivo; details: relative to the control group
Experimental: The forced swim test procedure was modified relative to the traditional method, so as to enhance sensitivity for detecting the putative antidepressant activity of drugs (Porsolt et al., 1977). The modifications consist of an increase in water depth (Dulawa et al., 2004). Mice were placed into plastic buckets (19 cm diameter, 23 cm deep, filled with 23-25° C. water) and videotaped for 6 min to score immobility duration.

CNCCC(Oc1ccc(C(F)(F)F)cc1)c1ccccc1 (stereo not drawn) [fluoxetine]
stress induced corticosterone levels [1]: had no effect | dendritic length of DCX+ cells (Sholl analysis) ([2]; chronic (28 d)): increased | number of DCX+ cells with tertiary dendrites ([2]; chronic (28 d)): significantly increased | number of intersections of DCX+ cells (Sholl analysis) ([2]; chronic (28 d)): increased | dendritic length in 3-week-old granule cells (BrdU/DCX double-positive) ([2]; three weeks of fluoxetine): enhanced | number of intersections in 3-week-old granule cells (BrdU/DCX double-positive) ([2]; three weeks of fluoxetine): enhanced | change in cell proliferation induced by corticosterone ([3]; 3 weeks of fluoxetine 18 mg/kg/day): completely reversed | effect of fluoxetine on survival ([3]; in the presence of corticosterone, compared with controls): even more pronounced | hippocampal cell proliferation ([3]; non-corticosterone treated C57BL/6Ntac mice, chronic fluoxetine): did not affect | corticosterone-induced decreased home cage activity and flattened circadian rhythm [4]: is not reversed | effects of fluoxetine to reverse the anxiety/depressive-like state in the NSF paradigm ([5]; after hippocampal irradiation, chronic corticosterone): completely abolished | corticosterone-induced change in the latency to feed (NSF) ([5]; chronic fluoxetine 18 or imipramine 40 mg/kg/day in corticosterone-treated mice): reversed | latency to feed (NSF) ([5]; irradiated corticosterone/fluoxetine group): 546.2 s | latency to feed (NSF) ([5]; sham corticosterone/fluoxetine group): 371.3 s | hypothermic response to 8-OH DPAT after chronic fluoxetine ([6]; 1A-High mice treated with fluoxetine for 30 days): no hypothermic response | hypothermic response to 8-OH DPAT after chronic fluoxetine ([6]; 1A-Low mice treated with fluoxetine for 30 days): blunted hypothermic response | immobility (FST) ([7]; wild-type mice): decrease in immobility | immobility (FST) ([7]; β-arrestin 2 knockout mice): decrease in immobility

— patent US20110296540A1, “ASSAY FOR SCREENING ANTIDEPRESSANTS” (priority 2008, published 2011)
